Reference: patent US20240218022A1, “ANTI-VISTA MACROCYCLIC PEPTIDES AND COMPOSITIONS” (BRISTOL-MYERS SQUIBB COMPANY, priority 2022, published 2024)
Where two headings read alike, the source gives them in different places. Starred links: 1 amine or outer side, 2 acyl side, 3 side chain; linkers in the order of their positions; H or OH if unused. Positions of bridges follow the written chain, without caps; N, C: chain ends. Non-standard residues stand in square brackets, D forms with d. Residues, ends and D or L forms follow the SMILES beside them. γGlu = O=C(O)[C@H](CCC(=O)[*:2])N[*:1]; 2Nal = N[C@@H](Cc1ccc2ccccc2c1)C(=O)O; βAsp = O=C(O)[C@H](CC(=O)[*:2])N[*:1]; Tic = O=C(O)[C@@H]1Cc2ccccc2CN1; Cit = NC(=O)NCCC[C@H](N)C(=O)O; Ahp(2) = CCCCC[C@H](N)C(=O)O; NMeNle = CCCC[C@H](NC)C(=O)O; Tle = CC(C)(C)[C@H](N)C(=O)O; NHexGly = CCCCCCNCC(=O)O; Nle = CCCC[C@H](N)C(=O)O; Orn = NCCC[C@H](N)C(=O)O; Aun = NCCCCCCCCCCC(=O)O; Abu = CC[C@H](N)C(=O)O; AEEA = NCCOCCOCC(=O)O

Molecular target: T1, mouse VISTA (mVISTA) (Mus musculus, UniProt Q9D659)
T1 construct: expressed in transfected cells; host or cells: Human embryonic kidney 293T cells
T1 sequence (Q9D659 33-308): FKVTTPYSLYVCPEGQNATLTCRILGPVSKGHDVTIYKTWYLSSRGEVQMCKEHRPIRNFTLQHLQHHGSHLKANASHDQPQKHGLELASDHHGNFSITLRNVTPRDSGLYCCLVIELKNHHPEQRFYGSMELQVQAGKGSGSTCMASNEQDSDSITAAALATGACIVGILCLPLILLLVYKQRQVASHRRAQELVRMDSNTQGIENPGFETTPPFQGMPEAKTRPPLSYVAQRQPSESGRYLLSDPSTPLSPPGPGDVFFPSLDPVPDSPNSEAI
Experiment: Cell-Based Binding High-Content Assay For mVISTA (HC CBA mVISTA)
Outline: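 Competition of compound with a biotinylated peptide (final 2 nM, 30 min at RT) for binding to mVISTA on 293T cells, run under no-wash or wash (1 h compound preincubation then removal) formats. Readout by Alexa 647–streptavidin imaging on a high-content platform; four-parameter logistic fit gave IC50.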

[1] = 293T cells expressing mouse VISTA, competition with biotinylated peptide (2 nM), read-out: HC CBA mVISTA IC50
[2] = cell-based binding high-content assay, mVISTA, the 16th table, read-out: HC CBA mVISTA IC50
[3] = cell-based binding high-content assay, mVISTA, read-out: HC CBA miPr ISTA IC50

## CCCCCCN1CC(=O)N[C@@H](Cc2ccc(O)cc2)C(=O)N[C@@H](C(C)C)C(=O)NCC(=O)N[C@@H](CCCNC(=N)N)C(=O)N[C@@H](CC(C)C)C(=O)N[C@@H](CCCCC)C(=O)N2CCC[C@H]2C(=O)N[C@@H](C(C)C)C(=O)N[C@@H](CC(=O)O)C(=O)N[C@H](C(=O)N[C@@H](CO)C(=O)N[C@@H](CCCN)C(=O)N[C@@H](CCC(N)=O)C(=O)O)CSCC(=O)N[C@@H](Cc2ccc3ccccc3c2)C(=O)N[C@@H](Cc2ccc(O)cc2)C(=O)N[C@@H](CC(=O)O)C1=O [Example 1160] ({CH2CO}-[2Nal]YD[NHexGly]YVGRL[Ahp(2)]PVDCS[Orn]Q-OH; thioether N-14)
[1]
  IC50: 0.0371 µM

## CCCCCCN1CC(=O)N[C@@H](Cc2ccc(O)cc2)C(=O)N[C@@H](CC(C)C)C(=O)NCC(=O)N[C@@H](CCCNC(=N)N)C(=O)N2Cc3ccccc3C[C@H]2C(=O)N[C@@H](CCCCC)C(=O)N2CCC[C@H]2C(=O)N[C@@H](C(C)C)C(=O)N[C@@H](CO)C(=O)N[C@H](C(=O)NCC(=O)O)CSCC(=O)N[C@@H](Cc2ccc3ccccc3c2)C(=O)N[C@@H](Cc2ccc(O)cc2)C(=O)N[C@@H](CC(=O)O)C1=O [Ex 1290] ({CH2CO}-[2Nal]YD[NHexGly]YLGR[Tic][Ahp(2)]PVSCG-OH; thioether N-14)
[2]
  IC50: 0.0115 µM

## CCCCCCN1CC(=O)N[C@@H](Cc2ccc(O)cc2)C(=O)N[C@@H](CCCC)C(=O)N[C@@H](CC(N)=O)C(=O)N[C@@H](CCCNC(=N)N)C(=O)N[C@@H](CC(C)C)C(=O)N[C@@H](CCCCC)C(=O)N2CCC[C@H]2C(=O)N[C@@H](C(C)(C)C)C(=O)N[C@@H](CC(=O)O)C(=O)N[C@H](C(=O)NCCOCCOCC(=O)N[C@@H](CCC(=O)NCCOCCOCC(=O)NCCCCCCCCCCC(=O)O)C(=O)O)CSCC(=O)N[C@@H](Cc2ccccc2)C(=O)N[C@@H](Cc2c[nH]c3ccccc23)C(=O)N[C@@H](CC(=O)O)C1=O [compound 2237] ({CH2CO}-FWD[NHexGly]Y[Nle]NRL[Ahp(2)]P[Tle]DC[AEEA][γGlu][AEEA][Aun]-OH; thioether N-14)
read-out: HC CBA mVISTA IC50
  IC50: 0.0362 µM

## CCCCCCN1CC(=O)N[C@@H](Cc2ccc(O)cc2)C(=O)N[C@@H](CC(C)C)C(=O)NCC(=O)N[C@@H](CCCNC(=N)N)C(=O)N[C@@H](Cc2ccc(O)cc2)C(=O)N[C@@H](CCCCC)C(=O)N2CCC[C@H]2C(=O)N[C@@H](C(C)C)C(=O)N[C@@H](CC(=O)O)C(=O)N[C@H](C(=O)NCC(=O)O)CSCC(=O)N[C@@H](Cc2ccccc2)C(=O)N[C@@H](Cc2c[nH]c3ccccc23)C(=O)N[C@@H](CC(=O)O)C1=O [Example 1417] ({CH2CO}-FWD[NHexGly]YLGRY[Ahp(2)]PVDCG-OH; thioether N-14)
read-out: HC CBA mVISTA IC50
  IC50: 0.0249 µM

## CCCCCCN1CC(=O)N[C@@H](Cc2ccc(O)cc2)C(=O)N[C@@H](C(C)C)C(=O)NCC(=O)N[C@@H](CCCNC(=N)N)C(=O)N[C@@H](CC(C)C)C(=O)N[C@@H](CCCCC)C(=O)N2CCC[C@H]2C(=O)N[C@@H](C(C)C)C(=O)N[C@@H](CC(=O)O)C(=O)N[C@H](C(=O)N[C@@H](CCCNC(=N)N)C(N)=O)CSCC(=O)N[C@@H](Cc2ccc3ccccc3c2)C(=O)N[C@@H](Cc2ccc(O)cc2)C(=O)N[C@@H](CC(=O)O)C1=O [Ex 1312] ({CH2CO}-[2Nal]YD[NHexGly]YVGRL[Ahp(2)]PVDCR-NH2; thioether N-14)
[2]
  IC50: 0.0077 µM

## CCCCCCN1CC(=O)N[C@@H](Cc2ccc(O)cc2)C(=O)N[C@@H](CCCC)C(=O)N[C@@H](CC(N)=O)C(=O)N[C@@H](CCCNC(=N)N)C(=O)N[C@@H](CC(C)C)C(=O)N[C@@H](CCCCC)C(=O)N2CCC[C@H]2C(=O)N[C@@H](C(C)C)C(=O)N[C@@H](CC(=O)O)C(=O)N[C@H](C(=O)NCC(=O)O)CSCC(=O)N[C@@H](Cc2ccccc2)C(=O)N[C@@H](Cc2c[nH]c3ccccc23)C(=O)N[C@@H](CC(=O)O)C1=O [Example 1361] ({CH2CO}-FWD[NHexGly]Y[Nle]NRL[Ahp(2)]PVDCG-OH; thioether N-14)
read-out: HC CBA mVISTA IC50
  IC50: 0.0052 µM

## CCCCCCN1CC(=O)N[C@@H](Cc2ccc(O)cc2)C(=O)N[C@@H](CCCC)C(=O)N[C@@H](CC(N)=O)C(=O)N[C@@H](CCCNC(=N)N)C(=O)N[C@@H](CC(C)C)C(=O)N[C@@H](CCCCC)C(=O)N2CCC[C@H]2C(=O)N[C@@H](C(C)C)C(=O)N[C@@H](CC(=O)O)C(=O)N[C@H](C(=O)NCC(=O)O)CSCC(=O)N[C@@H](Cc2ccc(OCC)cc2)C(=O)N[C@@H](Cc2c[nH]c3ccccc23)C(=O)N[C@@H](CC(=O)O)C1=O [compound 1476] ({CH2CO}-Y(Et)WD[NHexGly]Y[Nle]NRL[Ahp(2)]PVDCG-OH; thioether N-14)
The 20th table, scaffold drawing 23, read-out: HC CBA mVISTA IC50
  IC50: 0.0365 µM

## CCCCCCN1CC(=O)N[C@@H](Cc2ccc(O)cc2)C(=O)N[C@@H](CCCC)C(=O)N[C@@H](CC(N)=O)C(=O)N[C@@H](CCCNC(=N)N)C(=O)N(C)[C@@H](CCCC)C(=O)N[C@@H](CCCCC)C(=O)N2CCC[C@H]2C(=O)N[C@@H](C(C)(C)C)C(=O)N[C@@H](CO)C(=O)N[C@H](C(=O)N[C@@H](CC(=O)NCCOCCOCC(=O)N[C@@H](CC(=O)O)C(=O)NCCOCCOCC(=O)NCCCCCCCCCCC(=O)O)C(=O)O)CSCC(=O)N[C@@H](Cc2ccc3ccccc3c2)C(=O)N[C@@H](Cc2ccc(O)cc2)C(=O)N[C@@H](CC(=O)O)C1=O [compound 2023] ({CH2CO}-[2Nal]YD[NHexGly]Y[Nle]NR[NMeNle][Ahp(2)]P[Tle]SC[βAsp][AEEA]D[AEEA][Aun]-OH; thioether N-14)
[3]
  IC50: 0.0412 µM

## CCCCCCN1CC(=O)N[C@@H](Cc2ccc(O)cc2)C(=O)N[C@@H](CC)C(=O)N[C@@H](CC(N)=O)C(=O)N[C@@H](CCCNC(=N)N)C(=O)N(C)[C@@H](CCCC)C(=O)N[C@@H](CCCCC)C(=O)N2CCC[C@H]2C(=O)N[C@@H](C(C)(C)C)C(=O)N[C@@H](CO)C(=O)N[C@H](C(=O)N[C@@H](CC(=O)NCCOCCOCC(=O)N[C@@H](CC(=O)O)C(=O)NCCOCCOCC(=O)NCCCCCCCCCCC(=O)O)C(=O)O)CSCC(=O)N[C@@H](Cc2ccccc2)C(=O)N[C@@H](Cc2ccc(O)cc2)C(=O)N[C@@H](CC(=O)O)C1=O [compound 2059] ({CH2CO}-FYD[NHexGly]Y[Abu]NR[NMeNle][Ahp(2)]P[Tle]SC[βAsp][AEEA]D[AEEA][Aun]-OH; thioether N-14)
[3]
  IC50: 0.0374 µM

## CCCCCCN1CC(=O)N[C@@H](Cc2ccc(O)cc2)C(=O)N[C@@H](CCCC)C(=O)N[C@@H](CC(N)=O)C(=O)N[C@@H](CCCNC(N)=O)C(=O)N(C)[C@@H](CCCC)C(=O)N[C@@H](CCCCC)C(=O)N2CCC[C@H]2C(=O)N[C@@H](C(C)C)C(=O)N[C@@H](CO)C(=O)N[C@H](C(=O)NCCOCCOCC(=O)N[C@@H](CC(=O)O)C(=O)NCCOCCOCC(=O)NCCCCCCCCCCC(=O)O)CSCC(=O)N[C@@H](Cc2ccc3ccccc3c2)C(=O)N[C@@H](Cc2ccc(O)cc2)C(=O)N[C@@H](CC(=O)O)C1=O [compound 2319] ({CH2CO}-[2Nal]YD[NHexGly]Y[Nle]N[Cit][NMeNle][Ahp(2)]PVSC[AEEA]D[AEEA][Aun]-OH; thioether N-14)
cell-based binding high-content assay, read-out: HC CBA miPrISTA IC50
  IC50: 0.0251 µM

## CCCCCCN1CC(=O)N[C@@H](Cc2ccc(O)cc2)C(=O)N[C@@H](CCCCC)C(=O)N[C@@H](CC(N)=O)C(=O)N[C@@H](CCCNC(=N)N)C(=O)N(C)[C@@H](CCCC)C(=O)N[C@@H](CCCCC)C(=O)N2CCC[C@H]2C(=O)N[C@@H](C(C)C)C(=O)N[C@@H](CC(=O)O)C(=O)N[C@H](C(=O)N[C@@H](CO)C(N)=O)CSCC(=O)N[C@@H](Cc2ccccc2)C(=O)N[C@@H](Cc2c[nH]c3ccccc23)C(=O)N[C@@H](CC(=O)O)C1=O [Example 1405] ({CH2CO}-FWD[NHexGly]Y[Ahp(2)]NR[NMeNle][Ahp(2)]PVDCS-NH2; thioether N-14)
read-out: HC CBA mVISTA IC50
  IC50: 0.005 µM

## CCCCCCN1CC(=O)N[C@@H](Cc2ccc(O)cc2)C(=O)N[C@@H](CCCC)C(=O)N[C@@H](CC(=O)O)C(=O)N[C@@H](CCCNC(=N)N)C(=O)N[C@@H](CC(C)C)C(=O)N[C@@H](CCCCC)C(=O)N2CCC[C@H]2C(=O)N[C@@H](C(C)C)C(=O)NCC(=O)N[C@H](C(=O)NCC(=O)O)CSCC(=O)N[C@@H](Cc2ccccc2)C(=O)N[C@@H](Cc2ccc(O)cc2)C(=O)N[C@@H](CC(=O)O)C1=O [Example 1024] ({CH2CO}-FYD[NHexGly]Y[Nle]DRL[Ahp(2)]PVGCG-OH; thioether N-14)
[1]
  IC50: 0.0136 µM

## CCCCCCN1CC(=O)N[C@@H](Cc2ccc(O)cc2)C(=O)N[C@@H](CC(C)C)C(=O)NCC(=O)N[C@@H](CCCNC(=N)N)C(=O)N[C@@H](Cc2ccc(O)cc2)C(=O)N[C@@H](CCCCC)C(=O)N2CCC[C@H]2C(=O)N[C@@H](C(C)C)C(=O)N[C@@H](C(C)C)C(=O)N[C@H](C(=O)NCC(=O)O)CSCC(=O)N[C@@H](Cc2ccccc2)C(=O)N[C@@H](Cc2ccc(O)cc2)C(=O)N[C@@H](CC(=O)O)C1=O [Example 1097] ({CH2CO}-FYD[NHexGly]YLGRY[Ahp(2)]PVVCG-OH; thioether N-14)
[1]
  IC50: 0.018 µM

## CCCCCCN1CC(=O)N[C@@H](Cc2ccc(O)cc2)C(=O)N[C@@H](C(C)C)C(=O)NCC(=O)N[C@@H](CCCNC(=N)N)C(=O)N[C@@H](CC(C)C)C(=O)N[C@@H](CCCCC)C(=O)N2CCC[C@H]2C(=O)N[C@@H](C(C)C)C(=O)N[C@@H](CC(=O)O)C(=O)N[C@H](C(=O)N[C@@H](Cc2ccc(O)cc2)C(N)=O)CSCC(=O)N[C@@H](Cc2ccc3ccccc3c2)C(=O)N[C@@H](Cc2ccc(O)cc2)C(=O)N[C@@H](CC(=O)O)C1=O [Ex 1322] ({CH2CO}-[2Nal]YD[NHexGly]YVGRL[Ahp(2)]PVDCY-NH2; thioether N-14)
[2]
  IC50: 0.0055 µM
